From PMC6471177 (Pharmaceutics, 2019)

Legend:
[1] = Disappearance of docetaxel in rat intestinal microsomes with LC478; assay type: in vitro ADME; details: rat intestinal microsomes, LC478 1, 5, 10 µM
Experimental: (§1) The hepatic and intestinal microsomes were prepared based on a similar reported method.
(§2) Adding 0.1 M phosphate buffer (pH 7.4) adjusted the total volume as 0.5 mL, and then the components were incubated at 37 °C using a thermomixer at 500 opm. After incubation of 15 and 30 min for the hepatic and intestinal microsomes, respectively, 1 mL of acetonitrile with 5 µg/mL of paclitaxel as an internal standard added to terminate the reaction.
(§3) The unweighted kinetic data from rat hepatic and intestinal microsomes were fitted using a single-site Michaelis–Menten Equation V = Vmax × [S]/(Km + [S])(4) where [S] is the substrate concentration, Vmax is maximal velocity, and Km is substrate concentration for half-maximal velocity. The CLint was calculated by dividing the Vmax by the Km.

[2] = LC478 concentration in intestine after oral administration and [I]/IC50 prediction; assay type: in vivo; details: our unpublished data
Experimental: Concentration of LC478 was determined using a HPLC-UV system. A 50 µL aliquot of acetonitrile was added to a 50 µL aliquot of biological sample. After vortex-mixing and centrifugation, the supernatant was evaporated (Dry Thermo Bath MG-2200, Eyela, Tokyo, Japan) under a soft stream of nitrogen gas at 50 °C. The residue was reconstituted in 60 µL mobile phase and a 50 µL aliquot of the supernatant was loaded onto a reverse-phase C18 column (SunFireTM; 150 mm. ℓ. × 4.6 mm. i.d.; particle size, 5 µm; Waters, Milford, MA, USA). […]. The retention time of LC478 was approximately 7.8 min, and the quantitation limit was 0.1 µg/mL.

[3] = tested on: P-gp overexpressing MES-SA/DX5 sarcoma cells; details: cited from earlier work
[4] = MTT cell viability assay in Caco-2 cells; assay type: cell-based; details: human; Caco-2 cells, 0.001 to 100 µM, 24 h, MTT
Experimental: (§4) Caco-2 cells were obtained from the Korean Cell Line Bank (Seoul, Korea). The cells were maintained in Dulbecco’s modified Eagle’s medium (DMEM) supplemented with 10% fetal bovine serum, 1% non-essential amino acids, and 100 U/mL penicillin and gentamicin at 37 °C in a humidified 5% CO2 atmosphere.
(§5) The effect of LC478 on cell viability was assessed by an MTT assay. LC478 was dissolved in diluted in 100% dimethyl sulfoxide (DMSO) and diluted with cell culture media. Caco-2 cells were seeded in 96-well plates at 1 × 10^5 cells/mL. A 100 μL of LC478 in cell culture media was treated on the plates to achieve final concentration of LC478 in the ranges of 0.001 to 100 μM, which was incubated for 24 h. After adding 10 μL/well of MTT ([…]) and incubating them for 24 h, the supernatants of the cultures were removed and replaced with 100 μL of DMSO. The cell viability rate (%) was calculated as the absorbance of treated cells divided by that of control cells. The viability of the control cells was defined as 100%.

Caco-2 cells = experiment: MTT cell viability assay in Caco-2 cells; assay type: cell-based; details: even at 100 µM, 24 h incubation
Experimental: as §4, §5

[5] = Disappearance of docetaxel in rat hepatic microsomes with LC478; assay type: in vitro ADME; details: rat hepatic microsomes, LC478 1, 5, 10 µM
Experimental: as §1, §2, §3

[6] = Rat plasma protein binding of docetaxel by equilibrium dialysis; assay type: in vitro ADME; details: LC478 0.1 and 10 μg/mL
Experimental: A 1 mL of the plasma was dialyzed against 1 mL of isotonic Sørensen phosphate buffer (pH 7.4) containing 3% dextran (w/v) in a dialysis cell (Spectrum Medical Industries, Laguna Hills, CA, USA) using a Spectra/Por 4 membrane (mol. wt. cutoff 12−14 KDa; Spectrum Medical Industries, USA).

P-gp = molecular target: T1, P-gp (Homo sapiens, UniProt P08183); experiment: Intracellular accumulation of docetaxel in Caco-2 cells (P-gp inhibition); assay type: cell-based
T1 construct: They were allowed to grow to confluence for 5 days to obtain higher expressions of P-gp; endogenous in cells; host or cells: Caco-2
T1 sequence (P08183 whole entry): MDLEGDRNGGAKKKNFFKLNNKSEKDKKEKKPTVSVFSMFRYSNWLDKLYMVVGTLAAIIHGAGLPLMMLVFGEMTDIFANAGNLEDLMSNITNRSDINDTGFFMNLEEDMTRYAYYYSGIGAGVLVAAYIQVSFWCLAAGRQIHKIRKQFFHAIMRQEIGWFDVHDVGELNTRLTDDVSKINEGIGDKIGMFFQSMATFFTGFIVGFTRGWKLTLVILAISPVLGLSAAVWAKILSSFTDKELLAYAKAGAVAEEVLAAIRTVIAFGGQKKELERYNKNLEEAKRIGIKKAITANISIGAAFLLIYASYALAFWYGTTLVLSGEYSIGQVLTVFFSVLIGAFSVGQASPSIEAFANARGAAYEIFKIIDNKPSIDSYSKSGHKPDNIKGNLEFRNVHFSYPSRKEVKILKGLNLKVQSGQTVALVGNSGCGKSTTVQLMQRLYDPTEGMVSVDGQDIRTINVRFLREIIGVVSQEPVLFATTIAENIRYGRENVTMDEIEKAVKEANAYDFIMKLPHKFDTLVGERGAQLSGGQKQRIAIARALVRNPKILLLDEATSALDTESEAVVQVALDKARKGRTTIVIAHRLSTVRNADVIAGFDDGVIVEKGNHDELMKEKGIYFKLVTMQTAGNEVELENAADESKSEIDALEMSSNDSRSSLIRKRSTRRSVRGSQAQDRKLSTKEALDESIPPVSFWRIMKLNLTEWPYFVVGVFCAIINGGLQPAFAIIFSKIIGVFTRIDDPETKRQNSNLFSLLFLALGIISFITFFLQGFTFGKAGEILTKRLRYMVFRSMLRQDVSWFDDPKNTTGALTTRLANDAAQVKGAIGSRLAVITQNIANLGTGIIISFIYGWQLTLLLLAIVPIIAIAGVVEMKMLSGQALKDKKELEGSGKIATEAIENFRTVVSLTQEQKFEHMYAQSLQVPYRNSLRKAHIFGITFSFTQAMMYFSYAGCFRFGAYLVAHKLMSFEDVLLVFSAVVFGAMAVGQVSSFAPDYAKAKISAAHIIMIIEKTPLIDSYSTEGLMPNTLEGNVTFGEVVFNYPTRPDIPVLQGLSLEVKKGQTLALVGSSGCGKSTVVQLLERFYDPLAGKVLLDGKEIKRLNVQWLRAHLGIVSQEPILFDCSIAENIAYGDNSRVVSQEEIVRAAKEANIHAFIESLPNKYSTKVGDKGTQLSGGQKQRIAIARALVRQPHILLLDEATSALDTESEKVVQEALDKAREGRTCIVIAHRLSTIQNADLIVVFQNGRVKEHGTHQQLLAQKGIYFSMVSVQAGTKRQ

## COC(=O)c1cccc(NC(=O)COc2ccc(C34CC5CC(CC(C(=O)N6CCN(Cc7ccc(C(F)(F)F)cc7)CC6)(C5)C3)C4)cc2)c1 [LC478]
[1]
  effect on intestinal metabolism of docetaxel: not inhibited
[2]; after oral administration of 30 mg/kg LC478
  LC478 concentration in the intestine: 3.25 to 5.18 µM
[2]; after oral administration of 100 mg/kg LC478
  LC478 concentration in the intestine: 9.37 to 12.3 µM
[3]
  effect on P-gp mediated efflux of paclitaxel: reversed P-gp mediated efflux activity
  intrinsic cytotoxicity: without intrinsic cytotoxicity
[4]
  viability at 24 h: 97 to 100%
Caco-2 cells
  toxicity to Caco-2 cells: not toxic
[5]
  effect on hepatic metabolism of docetaxel: not inhibited
[6]
  effect on protein binding of docetaxel in rat plasma: did not affect
P-gp
  IC50: 601 nM
